# Values joined by “and” are separate entries in the source; they are usually repeats but may differ in a detail not shown here. Identical values can stand only once. Like-named read-outs stand apart in the source and are kept apart here.
# Experiments:
# [1] = test system: SaR1: Meticillin-Resistant Staphylococcus aureus without Associated Resistance; experiment: Antibiogram, MIC by the VITEK 2 system; assay type: cell-based; conditions: SaR1; for CA-SFM Interpretation: Cc CA-SFM 2011; for EUCAST Interpretation: Cc EUCAST 2011; for Results: from MIC
# Description: (§1) The bacterial and antibiogramidentification is carried out by the VITEK 2 system (bioMérieux)
# [2] = test system: Staphylococcus aureus strain ATCC 29213 (wild type); experiment: MIC of the compounds used alone, microdilution in a liquid medium (CLSI); assay type: cell-based; conditions: S. aureus ATCC 29213
# Source text: (§2) The MICs of the antibiotics were previously defined for each strain, by the method of microdilution in a liquid medium (CLSI (Clinical and Laboratory Standards Institute), 2003).
# [3] = test system: Pseudomonas aeruginosa strain PaR3; experiment: as above; assay type: cell-based
# Source text: as §2
# [4] = test system: Pseudomonas aeruginosa strain ATCC 27853 (wild type); experiment: as above; assay type: cell-based; conditions: P. aeruginosa ATCC 27853
# Source text: as §2
# [5] = test system: mucoid strain of Pseudomonas aeruginosa PaR5; experiment: as above; assay type: cell-based
# Source text: as §2
# [6] = test system: Pseudomonas aeruginosa strain PaR2; experiment: microbe, parasite or virus in culture; assay type: cell-based
# Source text: as §2
# [7] = test system: SaR4: Meticillin-Resistant Staphylococcus aureus; experiment: Antibiogram, MIC by the VITEK 2 system; assay type: cell-based; conditions: SaR4; for CA-SFM Interpretation: Cc CA-SFM 2011; for EUCAST Interpretation: Cc EUCAST 2011; for MIC: Staphylococcus aureus, read-out: MIC
# Description: (§3) The bacterial and antibiogramidentification is carried out by the VITEK 2 system (bioMérieux) and by the disk diffusion technique
# [8] = test system: Escherichia coli, Staphylococcus aureus and Pseudomonas aeruginosa strains; experiment: Chessboard technique, summary statements over all strains and combinations tested; assay type: cell-based; conditions: strain not stated
# Source text: 1.3. Procedure: Chessboard Technique
# The same procedure is followed for the Cx1. […] Thus 64 ATB/Cx1 combinations are obtained.
# The FIC (Fractional Inhibitory Concentration Index) value is defined by the following formula: […]
# When FIC≦0.5, there is a synergistic effect between antibiotic A and antibiotic B.
# When 0.5<FIC≦1, there is an additive effect between antibiotic A and antibiotic B.
# When 1<FIC≦4, there is an indifferent effect between antibiotic A and antibiotic B.
# When FIC>4, there is an antagonistic effect between antibiotic A and antibiotic B.
# For each strain and each antibiotic/Cx1 combination, the experiments were repeated a minimum of 3 times.
# [9] = test system: SaR3: Meticillin-Resistant Staphylococcus aureus; experiment: Antibiogram by the disk diffusion technique; assay type: cell-based; conditions: for CA-SFM Interpretation: Cd CA-SFM 2011; for Diameter: Table E1; for Results: Table E1, against Dmin Dmax; for diameter in mm: Table E2
# Description: as §3
# [10] = test system: PaR5: Pseudomonas aeruginosa; experiment: Antibiogram by the disk diffusion technique; assay type: cell-based
# Description: as §3
# [11] = test system: EcR1: Penicillinase-Producing Escherichia coli without Associated Resistance; experiment: Antibiogram by the disk diffusion technique; assay type: cell-based
# Description: 5.1 EcR1: Penicillinase-Producing Escherichia coli without Associated Resistance The bacterial and antibiogramidentification is carried out by the VITEK 2 system (bioMérieux) and by the disk diffusion technique.
# [12] = test system: MRSA strain having a resistance to the aminoglycosides and fluoroquinolones (SaR3); experiment: MIC of the compounds used alone, microdilution in a liquid medium (CLSI); assay type: cell-based, Staphylococcus aureus; conditions: SaR3
# Source text: as §2
# [13] = test system: MRSA strain without associated resistance (SaR1); experiment: as above; assay type: cell-based, Staphylococcus aureus; conditions: SaR1
# Source text: as §2
# [14] = as above; assay type: cell-based, Staphylococcus aureus; conditions: Staphylococcus aureus, MRSA; antibiotic alone (second value of cell); SaR4; read-out: MIC
# Source text: as §2
# [15] = test system: PaR2: Pseudomonas aeruginosa; assay type: cell-based
# Description: as §3
# [16] = test system: SaR1: Meticillin-Resistant Staphylococcus aureus without Associated Resistance; experiment: Antibiogram, inhibition diameter (Table D1); assay type: cell-based; conditions: for Results: from diameter, against Dmin Dmax
# Description: as §1
# [17] = test system: EcR3: ESBL-Producing Escherichia coli; experiment: Antibiogram by the disk diffusion technique; assay type: cell-based
# Description: The bacterial and antibiogramidentification is carried out by the VITEK 2 system (bioMerieux) and by the disk diffusion technique
# [18] = test system: MRSA strain having a resistance to the aminoglycosides, fluoroquinolones, macrolides-lincosamides-synergistins and ofloxacin (SaR4); experiment: MIC of the compounds used alone, microdilution in a liquid medium (CLSI); assay type: cell-based, Staphylococcus aureus; conditions: SaR4
# Source text: as §2
# [19] = test system: ESBL-producing strain of Escherichia coli, having an associated resistance to the aminoglycosides (EcR3); experiment: as above; assay type: cell-based; conditions: Cx1 alone (first value of cell)
# Source text: as §2
# [20] = test system: penicillinase-producing strain of Escherichia coli without associated resistance (EcR1); experiment: as above; assay type: cell-based; conditions: Cx1 alone (first value of cell)
# Source text: as §2
# [21] = test system: cephalosporinase-hyperproducing strain of Escherichia coli (EcR2); experiment: as above; assay type: cell-based; conditions: Cx1 alone (first value of cell)
# Source text: as §2
# [22] = test system: Escherichia coli strain ATCC 25922 (wild type); experiment: as above; assay type: cell-based; conditions: E. coli ATCC 25922
# Source text: as §2
# [23] = Pseudomonas aeruginosa, antibiotic alone (second value of cell), read-out: MIC
# [24] = Staphylococcus aureus, MRSA, antibiotic alone (second value of cell), read-out: MIC
# [25] = antibiotic alone (second value of cell)
# [26] = Cx1 alone (first value of cell)
molecule,measurement,setting,value
C[C@@H]1O[C@@H]1P(=O)(O)O [Fosfomycin],CA-SFM Interpretation,[1],Susceptible
same,EUCAST Interpretation,[1],Susceptible
same,Results,[1]; Table D1,Susceptible
same,MIC mg/L,[1]; Table D2,≦8 mg/L
same,MIC,"[1]; Staphylococcus aureus, Table D1, read-out: MIC",≤ 8 µg/mL
same,MIC,"[2]; Staphylococcus aureus, ATCC29213, antibiotic alone (second value of cell), read-out: Initial MICs",8 µg/mL
same,MIC,[3]; [23],> 64 µg/mL
same,MIC,"[4]; Pseudomonas aeruginosa, ATCC27853, antibiotic alone (second value of cell), read-out: MIC",16 µg/mL
same,MIC,[5]; [23],16 µg/mL
same,MIC,[6]; [23],64 µg/mL
same,Results,"[7]; Table F1, MIC",Resistant
same,CA-SFM Interpretation,[7]; from MIC,Resistant
same,EUCAST Interpretation,[7]; from MIC,Resistant
same,MIC,[7]; Table F1,≥ 64 µg/mL
same,MIC,"[7]; Table F2, MIC",≥ 64 µg/mL
same,interaction between the antibiotic and Cx1,[8],synergism
same,CA-SFM Interpretation,[9],Susceptible
same,Diameter,[9],26 mm
same,Results,[9],Susceptible
same,diameter in mm,[9],26 mm
same,Diameter,"[10]; PaR5, Table I1",30 mm
same,Results,"[10]; PaR5, Table I1, against Dmin-Dmax",Susceptible
same,diameter in mm,"[10]; disk diffusion inhibition diameter, strain PaR5",30 mm
same,CA-SFM Interpretation,"[10]; disk diffusion, PaR5, versus critical diameter CA-SFM 2011",Susceptible
same,MIC mg/L (diameter in mm),"[11]; EcR1, cells that print a diameter, Table A2",24 mm
same,CA-SFM Interpretation,"[11]; EcR1, diameter against CA-SFM 2011 limits",Susceptible
same,CLSI Interpretation,"[11]; EcR1, diameter against CLSI 2011 limits",Susceptible
same,Diameter,"[11]; EcR1, disk diffusion, Table A1",24 mm
same,Results,"[11]; EcR1, interpretation of the diameter against Dmin Dmax, Table A1",Susceptible
same,MIC,[12]; [24],16 µg/mL
same,MIC,[13]; [24],2 µg/mL
same,MIC,[14],128 µg/mL
same,CA-SFM Interpretation,[15]; Cd CA-SFM 2011,Resistant
same,Diameter,[15]; Table G1,13 mm
same,Results,"[15]; Table G1, against Dmin-Dmax",Resistant
same,diameter in mm,[15]; Table G2,13 mm
same,Diameter,[16],40 mm
same,Results,[16],Susceptible
same,CA-SFM Interpretation,[17]; Cd CA-SFM 2011,Susceptible
same,CLSI Interpretation,[17]; Cd CLSI 2011,Susceptible
same,Diameter,[17]; Table C1,23 mm
same,Results,"[17]; Table C1, against Dmin Dmax",Susceptible
same,diameter in mm,[17]; Table C2,23 mm
CC1(C)S[C@@H]2[C@H](NC(=O)Cc3ccccc3)C(=O)N2[C@H]1C(=O)O [Penicillin G],CA-SFM Interpretation,[1],Resistant
same,CLSI Interpretation,[1]; Cc CLSI 2011,Resistant
same,EUCAST Interpretation,[1],Resistant
same,MIC mg/L,[1]; Table D1,≧0.5 mg/L
same,Results,[1]; Table D1,Resistant
same,MIC mg/L,[1]; Table D2,≧0.5 mg/L
same,Initial MICs,[2]; [25],1 mg/L
same,Results,"[7]; Table F1, MIC",Resistant
same,CA-SFM Interpretation,[7]; from MIC,Resistant
same,CLSI Interpretation,"[7]; from MIC, Cc CLSI 2011",Resistant
same,EUCAST Interpretation,[7]; from MIC,Resistant
same,CA-SFM Interpretation,[9],Resistant
same,CLSI Interpretation,[9]; Cd CLSI 2011,Resistant
same,EUCAST Interpretation,[9]; Cd EUCAST 2011,Resistant
same,Diameter,[9],26 mm
same,Results,[9],Resistant
same,diameter in mm,[9],26 mm
same,MIC,[12]; [25],0.5 µg/mL
same,MIC,[13]; [25],0.5 µg/mL
same,MIC,[18]; [25],4 µg/mL
same,Diameter,[16],28 mm
same,Results,[16],Resistant
para-guanidinoethylcalix[4]arene [Cx1],Initial MICs,[19],2 mg/L
same,Initial MICs (mg/L),[19],2/2 mg/L
same,Initial MICs,[2]; [26],8 mg/L
same,Initial MICs (mg/L),[2]; [26],8/8 mg/L
same,"Initial MICs (mg/L), Cx1",[2]; Cx1 alone,8 mg/L
same,Initial MICs,[20],2 mg/L
same,MIC,[3]; [26],32 µg/mL
same,MIC mg/L,[3]; [26],32/32 mg/L
same,Initial MICs,[21],2 mg/L
same,Initial MICs (mg/L),[21],2/2 mg/L
same,MIC,[4]; [26],32 µg/mL
same,"Initial MICs (mg/L), Cx1",[4]; Cx1 alone,32/32 mg/L and 32 mg/L
same,Initial MICs,[22]; [26],4 mg/L and 2 mg/L
same,Initial MICs (mg/L),[22]; [26],4/4 mg/L
same,"Initial MICs (mg/L), Cx1",[22]; Cx1 alone,4 mg/L
same,MIC,[5]; [26],32 µg/mL
same,MIC mg/L,[5]; [26],32/32 mg/L
same,MIC,[6]; [26],32 µg/mL
same,MIC,[12]; [26],8 µg/mL
same,MIC mg/L,[12]; [26],8/8 mg/L
same,MIC,[13]; [26],8 µg/mL
same,MIC,[18]; [26],8 µg/mL

# Reference: US20140066365A1, “USE OF CALIXARENES ASSOCIATED WITH AN ANTIBIOTIC IN THE TREATMENT OF BACTERIAL INFECTIONS” (priority 2011, published 2014)
